This is an account of results in US6803233B2, “Model for Alzheimer's disease and other neurodegenerative diseases” (priority 2000, dated 2004).

Assay [1] relates to TGF-beta. Kind of assay: RT-PCR/northern blot of cytokine mRNA in cultured hippocampal slices. It is filed as cell-based. The conditions noted are these: ZPAD 20 μM, mevastatin 20 μM.
Assay [2] concerns tangle-like structures. Kind of assay: AT8 immunocytochemistry of cultured mouse hippocampal slices. It is filed as cell-based. The following applies: ZPAD 6 days; for number of AT8 immunopositive profiles: 0.3 mm^2 box at CA1/subicular border, mean±s.e.m., n=5. On the procedure: Hippocampal slices were prepared from 10 to 13 day old C57BL/6J (wild-type) and C57BL/6J-ApoE^tm1Unc (ApoE-knockout) mice obtained from the Jackson laboratory, Bar Harbor, Me. Pups were placed under light bromo-chloro-trifluoroethane anesthesia (Sigma, St. Louis, Mo.), and killed by decapitation. After removing the brains, the hippocampus was dissected and subsequently placed on a McIlwain tissue chopper where slices (400 μm thick) were obtained and placed in a solution of cutting medium consisting of Minimum Essential Medium (MEM) with Earle's salts (Gibco, Grand Island, N.Y.), 25 mM HEPES buffer, 10 mM Tris base, 10 mM glucose, and 3 mM MgCl2, pH 7.20. Hippocampal slices were then placed onto the membranes of Millicell-CM culture inserts (Millipore Corp., Bedford, Mass.) in 6 well culture cluster plates and 1 ml of media per well using the methods described by Stoppini et al., J. Neurosci. Methods 37(2):173-82 (1991). The culture medium was described previously by Bednarski et al., J. Neurosci. 17(11):4006-21 (1997). The cultures were incubated in a 37° C. atmosphere containing 5% CO2 and the culture medium was replaced every other day until the initiation of experiments. Each culture cluster plate contained hippocampal slices from either two wild-type or two apoE-knockout mice and individual wells were used for matched control and experimental treatment groups.
After maintaining the slices with normal culture medium (Bednarski et al., J. Neurosci. 17(11):4006-21 (1997)) in vitro for 12-14 days, slices were incubated with culture medium containing either 20 μM N-CBZ-L-phenylalanyl-L-alanine-diazomethyl-ketone (ZPAD; BACHEM Bioscience, Inc., Torrance, Calif.), an inhibitor of cathepsins B and L (Shaw & Dean, Biochem. J. 186:385-390 (1980); Green & Shaw, J Biol Chem. 256:1923-1928 (1981); Richardson et al., J. Cell Biol. 107: 2097-2107 (1988)) or vehicle (dimethylsulfoxide; DMSO, 0.01%-0.04%) for six days. This treatment media was exchanged every other day.
For immunocytochemical staining, control and ZPAD-treated slices from both wild-type and apoE-deficient mice were fixed in 4% paraformaldehyde in 0.1 M phosphate buffer (“PB”) at 4° C. overnight, rinsed once in a solution of phosphate buffered saline PBS (PB: phosphate buffer: 0.1M Na2HPO4 and NaH2PO4; PBS: phosphate buffered saline: NaCl 8 g, KCl 0.2 g, Na2HPO4 1.44 g, KH2PO4 0.24 g, dissolved in 1 liter distilled water, pH 7.4) cryoprotected in 20% sucrose in 0.1 M PB, sectioned on a freezing microtome at 25 μm parallel to the broad upper surface of the explant and mounted onto sterile Fisher Superfrost/Plus slides. […]

For assay [3], the system named is cathepsin D. Kind of assay: Immunoblot of cathepsin D isoforms in cultured mouse hippocampal slices. The format is cell-based. The conditions noted are these: 20 μM ZPAD, 6 days. On the technique in general: A western blot detects proteins with antibodies after separation by electrophoresis.
Assay [4] has as its system MAPK (ERK1/2). Kind of assay: Immunoblot with anti-active MAPK in cultured hippocampal slices. It is filed as cell-based. The conditions noted are these: hippocampal slices; 6 days.
The test system of assay [5] is reactive microglia. As to the kind of experiment: ED-1 immunocytochemistry of cultured brain explants. The conditions noted are these: ZPAD 20 μM, mevastatin 20 μM or PD98059 50 μM alone, 6 days. The format is cell-based, rat. The method, then:
Immunocytochemical studies using the monoclonal antibody ED-1 that recognizes reactive microglia were used at 1:1000 dilution following standard immunohistochemical procedures. Microglial activation was determined by measuring cell numbers, optical density, and size of cell bodies using the program NIH Image. Brain tissue was cultured for 12 days and treated with ZPAD (20 μM) in the presence or absence of PD98059 (50 μM) for 6 days (FIG. 18). Cultured explants were then sliced and stained by using monoclonal antibody ED-1 which recognizes reactive microglia, a classical marker of inflammation. […] Cultured brain explants were then sliced and stained by using monoclonal antibody ED-1, a classical marker for reactive microglia and macrophages.

Assay [6] relates to p35. As to the kind of experiment: Immunoblot of p35/p25 in cultured rat hippocampal slices. It is filed as cell-based. The following applies: hippocampal slices.
Protocol: Hippocampal slices were collected, homogenized, and subjected to SDS-PAGE electrophoresis. Immunoblots were then probed with anti-p35 sera that were raised against the C-terminal domain of p35.
(§1) Cultures of hippocampal slices were prepared from 10-12 days old rats.
Assay [7] deals with cathepsin D. The conditions noted are these: literature report; cited from earlier work.
The test system of assay [8] is tau. As to the kind of experiment: Immunoblot of tau (tau-1, AT8) in cultured rat hippocampal slices. It is filed as cell-based. The following applies: rat hippocampal slices; 6 days.
Protocol: Immunoblotting was carried out by using anti-non phosphorylated tau antibody, tau-1 or anti-phosphorylated tau antibody, AT8.
as §1
[9] abbreviates: apoE-knockout mouse slices, relative to yoked knockout controls.
The mark [10] stands for this setting: wild-type mouse slices, relative to controls, mean±s.e.m.

Values joined by “and” are separate entries in the source; they are usually repeats but may differ in a detail not shown here. Equal values may be shown once. “Also recorded” adds a separate entry of the source.

As for “N-CBZ-L-phenylalanyl-L-alanine-diazomethyl-ketone [ZPAD]”, the “mRNA levels of TGF-beta” value in assay [1] is “increases”. For the same substance, the AT8-immunoreactive tangle-like structures entry in assay [2] (apoE-knockout mouse slices) is “present in large numbers; also recorded: significantly increased; also recorded: more than double; also recorded: Numerous, densely stained neurons; also recorded: Numerous immunopositive neurons; also recorded: numerous, densely labeled cells”; in assay [2] (wild-type mouse slices), “occasionally found; also recorded: far fewer AT8-ir structures”. For the same substance, the “number of AT8 immunopositive profiles” value was 193.8±15 in assay [2] (apoE-knockout slices) and 112.6±13 in assay [2] (wild-type slices). Also, the “increase in cathepsin D heavy chain (~38 kDa)” value was 84±26% and 84+26% in assay [3] (apoE-knockout mouse slices, relative to control values); 3.0±5.7% and 3.0+5.7% in assay [3] (setting [10]). The “increase in cathepsin D proenzyme (~55 kDa)” value was 145±43% and 145+43% in assay [3] (setting [9]); 65±29% and 65+29% in assay [3] (wild-type mouse slices, relative to yoked controls, mean±s.e.m., n=9). Besides, the “increase in cathepsin D single chain (~50 kDa)” value in assay [3] (setting [9]) was 150±29% and 150+29%. Also, the “increase in cathepsin D single chain form (~50 kDa)” value in assay [3] (setting [10]) was 42±22% and 42+22%. Moreover, the “activated MAPK (ERK1/2)” value in assay [4] is on record as “activated; also recorded: activation”. Besides, the “reaction of microglia (ED-1 staining)” value in assay [5] is “triggered significant reaction of microglia”. Also, the “levels of p35” value in assay [6] (6 days) is given as “significant decrease”. The “truncated form p25” value in assay [6] (six day treatment) is “paralleled increase”. Further, in assay [7], the “enzymatically active cathepsin D” value was “increases in enzymatically active cathepsin D”. Besides, the “native tau proteins (tau-1 blot)” value in assay [8] is reported as “decreases in the native tau proteins; also recorded: induced a truncation of native tau proteins”. The “tau fragments (tau-1 blot)” value in assay [8] was “increases in fragments at apparent molecular weights of 40, 33, and 29 kDa; also recorded: generation of tau fragments”.
